Assays:
[1] = Sedimentation in liquid solutions; type: physicochemical; conditions: micronized, particulate form
[2] = exposure to oxygen: oxygenation of diclofenac, degradation of ofloxacin into ofloxacin-N-oxide; cited from earlier work

time to sedimentation in liquid solutions [1]	Compound	compatibility of diclofenac and ofloxacin [2]
less than one minute	CC(=O)OCC(=O)[C@@]1(O)CC[C@H]2[C@@H]3CCC4=CC(=O)C=C[C@]4(C)[C@H]3[C@@H](O)C[C@@]21C [Prednisolone acetate]	–
–	O=C(O)Cc1ccccc1Nc1c(Cl)cccc1Cl [Diclofenac]	generally incompatible

From US11000530B2, “Methods and compositions for the treatment of ophthalmic conditions” (Murray & Poole Enterprises, Limited, priority 2017, dated 2021)
